Results published in the supplement of paper PMC4862054.

Experiments:
Settings in all cases: incubation time: 72 h
CAL-85-1 [1] = assay: normalised viability (% of control), CellTiter-Blue; higher = more viable cells (100 = DMSO, 0 = benzethonium chloride kill control)
Experimental: (§1)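 DSRT, CellTiter-Blue viability, 72 h incubation. Signal is normalised to DMSO and benzethonium chloride controls. Value is the normalised response at dose 1.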

MFM-223 [2] = assay: as above
Experimental: as §1

MDA-MB-436 [3] = assay: as above
Experimental: as §1

CAL-148 [4] = assay: as above
Experimental: as §1

MDA-MB-468 [5] = assay: as above
Experimental: as §1

SK-BR-3 [6] = assay: as above
Experimental: as §1

HDQ-P1 [7] = assay: as above
Experimental: as §1

HCC1937 [8] = assay: as above
Experimental: as §1

Hs578T [9] = assay: as above
Experimental: as §1

DU-4475 [10] = assay: as above
Experimental: as §1

MDA-MB-453 [11] = assay: as above
Experimental: as §1

HCC1599 [12] = assay: as above
Experimental: as §1

BT-549 [13] = assay: as above
Experimental: as §1

CAL-51 [14] = assay: as above
Experimental: as §1

BT-474 [15] = assay: as above
Experimental: as §1

HCC1143 [16] = assay: as above
Experimental: as §1

CAL-120 [17] = assay: as above
Experimental: as §1

MDA-MB-231 [18] = assay: as above
Experimental: as §1

CAL-85-1 [19] = assay: normalised response (% of control), CellTiter-Glo; higher = more viable cells (100 = DMSO, 0 = benzethonium chloride kill control)
Procedure, shortened: (§2)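 Each entry is the normalised signal at a single concentration within a series. The series comprised 5 concentrations in 10-fold steps over a compound-specific 10,000-fold range, placed in 384-well plates into which breast cancer cell lines were seeded as 20 µl suspension and incubated 72 h. CellTox Green (485/520 nm) fluorescence and then CellTiter-Glo luminescence were read, with signals normalised per plate to 0.1 % DMSO (100) and a positive kill control (0).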

MFM-223 [20] = assay: as above
Procedure, shortened: as §2

MDA-MB-436 [21] = assay: as above
Procedure, shortened: as §2

CAL-148 [22] = assay: as above
Procedure, shortened: as §2

MDA-MB-468 [23] = assay: as above
Procedure, shortened: as §2

SK-BR-3 [24] = assay: as above
Procedure, shortened: as §2

HDQ-P1 [25] = assay: as above
Procedure, shortened: as §2

HCC1937 [26] = assay: as above
Procedure, shortened: as §2

Hs578T [27] = assay: as above
Procedure, shortened: as §2

DU-4475 [28] = assay: as above
Procedure, shortened: as §2

MDA-MB-453 [29] = assay: as above
Procedure, shortened: as §2

MCF-10A = assay: as above
Procedure, shortened: as §2

HCC1599 [30] = assay: as above
Procedure, shortened: as §2

BT-549 [31] = assay: as above
Procedure, shortened: as §2

CAL-51 [32] = assay: as above
Procedure, shortened: as §2

BT-474 [33] = assay: as above
Procedure, shortened: as §2

HCC1143 [34] = assay: as above
Procedure, shortened: as §2

CAL-120 [35] = assay: as above
Procedure, shortened: as §2

MDA-MB-231 [36] = assay: as above
Procedure, shortened: as §2

SMILES	normalised viability (CAL-85-1 [1])	normalised viability (MFM-223 [2])	normalised viability (MDA-MB-436 [3])	normalised viability (CAL-148 [4])	normalised viability (MDA-MB-468 [5])	normalised viability (SK-BR-3 [6])	normalised viability (HDQ-P1 [7])	normalised viability (HCC1937 [8])	normalised viability (Hs578T [9])	normalised viability (DU-4475 [10])	normalised viability (MDA-MB-453 [11])	normalised viability (HCC1599 [12])	normalised viability (BT-549 [13])	normalised viability (CAL-51 [14])	normalised viability (BT-474 [15])	normalised viability (HCC1143 [16])	normalised viability (CAL-120 [17])	normalised viability (MDA-MB-231 [18])	normalised response (CAL-85-1 [19])	normalised response (MFM-223 [20])	normalised response (MDA-MB-436 [21])	normalised response (CAL-148 [22])	normalised response (MDA-MB-468 [23])	normalised response (SK-BR-3 [24])	normalised response (HDQ-P1 [25])	normalised response (HCC1937 [26])	normalised response (Hs578T [27])	normalised response (DU-4475 [28])	normalised response (MDA-MB-453 [29])	normalised response (MCF-10A)	normalised response (HCC1599 [30])	normalised response (BT-549 [31])	normalised response (CAL-51 [32])	normalised response (BT-474 [33])	normalised response (HCC1143 [34])	normalised response (CAL-120 [35])	normalised response (MDA-MB-231 [36])
CCC1(c2ccc(N)cc2)CCC(=O)NC1=O (stereo unspecified) [Aminoglutethimide] (1 nM)	115%	108%	98.2%	107%	97.1%	90%	92.7%	97.3%	107%	98.7%	89.7%	95.7%	93.2%	86.1%	91.1%	109%	110%	85.4%	109%	99.8%	87.3%	108%	104%	103%	98.4%	96.2%	96.9%	99.1%	98.6%	97.8%	91.7%	106%	112%	103%	97%	106%	110%
CN(N=O)C(=O)N[C@@H](C=O)[C@@H](O)[C@H](O)[C@H](O)CO [Streptozocin] (1 nM)	91.4%	92.8%	100%	111%	102%	106%	116%	99.1%	103%	104%	111%	132%	102%	110%	81%	99%	101%	106%	94.2%	105%	104%	102%	97.5%	106%	104%	104%	106%	95.7%	92.1%	113%	96.4%	102%	80.8%	98.8%	105%	103%	108%
CCC1=C[C@@H]2CN(C1)Cc1c([nH]c3ccccc13)[C@@](C(=O)OC)(c1cc3c(cc1OC)N(C)[C@H]1[C@@](O)(C(=O)OC)[C@H](OC(C)=O)[C@]4(CC)C=CCN5CC[C@]31[C@@H]54)C2 [Vinorelbine] (1 nM)	98.1%	95.6%	101%	106%	99.3%	95.2%	109%	90.8%	113%	102%	86.9%	90.2%	109%	98.1%	104%	96.5%	94.2%	93.3%	101%	96.5%	96.6%	108%	101%	95.2%	98.1%	95%	97.2%	98.9%	102%	108%	107%	106%	102%	97.4%	101%	106%	107%
C=C(c1ccc(C(=O)O)cc1)c1cc2c(cc1C)C(C)(C)CCC2(C)C [Bexarotene] (1 nM)	102%	99.6%	82.5%	105%	105%	94.8%	84.7%	108%	111%	82.5%	83.5%	101%	88.7%	94.1%	81.1%	110%	115%	86.1%	99.7%	97.5%	89.5%	107%	109%	102%	102%	100%	93.2%	99.6%	111%	99.8%	98.9%	103%	105%	103%	99.7%	99.6%	107%
Oc1nc(-c2ccc(C(F)(F)F)cc2)nc2c1CSCC2 [XAV-939] (1 nM)	93.8%	107%	119%	101%	104%	99.3%	97.3%	84%	89.6%	119%	106%	141%	99.4%	102%	84.9%	97.6%	97.7%	100%	104%	102%	107%	92.4%	99.1%	99.2%	98.9%	97.2%	97.1%	104%	97.6%	101%	95.8%	95.8%	97.6%	99.7%	100%	97.1%	101%
CO[C@H]1/C=C\C=C(/C)C(=O)NC2=CC(=O)C(NCCN(C)C)=C(C[C@@H](C)C[C@H](OC)[C@H](O)[C@@H](C)/C=C(\C)[C@@H]1OC(N)=O)C2=O [Alvespimycin] (0.1 nM)	102%	99.9%	98%	102%	104%	104%	105%	113%	117%	108%	99.2%	76%	91.9%	92.8%	102%	103%	100%	99.7%	100%	107%	97.5%	106%	116%	111%	94.8%	92.7%	91.2%	109%	111%	101%	112%	105%	69.6%	105%	95.1%	105%	98.5%
Cc1ccc(C(=O)Nc2ccc(CN3CCN(C)CC3)c(C(F)(F)F)c2)cc1C#Cc1cnc2cccnn12 [Ponatinib] (0.1 nM)	101%	103%	103%	98.5%	104%	91.9%	109%	87.3%	111%	97.2%	92.5%	104%	98.3%	87.5%	90.1%	103%	97.1%	107%	103%	98%	105%	105%	105%	101%	104%	95.3%	102%	101%	101%	102%	99.4%	109%	95.4%	102%	95.9%	103%	99.3%
Cc1ccc(-n2nc(C(C)(C)C)cc2NC(=O)Nc2ccc(OCCN3CCOCC3)c3ccccc23)cc1 [Doramapimod] (1 nM)	100%	98.8%	92.2%	97.8%	105%	108%	64.3%	87%	101%	105%	104%	99.3%	99.7%	112%	112%	97.3%	89.9%	102%	91.3%	92.4%	93.8%	88.6%	95%	79.2%	93%	97.4%	95.5%	97.6%	95%	78.8%	81.5%	107%	83.7%	95.5%	98.3%	93.3%	97.9%
